{"source": "patent US10364263B2", "about": "“Cyclic phosphates and cyclic phosphoramidates for the treatment of neurologic disorders” (Retrophin, Inc., priority 2015, dated 2019)", "tested_on": "PANK2 silenced human neuroblastoma IMR32 cells (PANK2−/−)", "assay": "Coenzyme A assay in PANK2 silenced cells (LC-MS quantification of free CoA)", "assay_type": "cell-based", "details": "compound added twice (24 h + 24 h), relative to 0.1% DMSO controls", "procedure": "A human neuroblastoma IMR32 cell line (ATCC) with stably PANK2 silencing was obtained by lentiviral-delivered small hairpin RNA and cultured in MEM (Invitrogen) supplemented with 10% fetal bovine serum, 2 mM glutamine, 1% penicillin-streptomycin, 1 mM sodium pyruvate, 1 mM non essential amino acids and 1.5 g/l sodium bicarbonate.\nFor lentiviral shRNA expression, Human Emryonic Kidney HEK-293T cells (ATCC) were transfected with the appropriate pGFP-Lenti-shRNA constructs and packaging plasmids according to manufacturer's protocol (Origene Technologies, Inc.). Four different gene-specific shRNA expression vectors designed against multiple splice variants of PANK2 (Gene ID 80025) were used for transfection. A non-silencing shRNA construct (scrambled shRNA) and an empty vector expressing GFP alone were used as negative controls. The GFP tag subcloned into the lentiviral vectors was used to monitor the transfection efficiency.\nIMR32 cells were plated on 150 cm dishes 48 h before transduction with lentiviral particles.\nThree days after transduction medium was removed and replaced with fresh medium containing […] puromycin. Medium was replaced every 48 h. Levels of PANK2 expression on selected clones was assessed by Western Blot analysis.\nTo quantify CoA, PANK2^−/− IMR32 cells were plated on 12-well culture plates (Corning) at a density of 0.2×10^6 cells per well. After 72 h, compounds were freshly dissolved in DMSO and added to the culture medium to yield a final solvent concentration of 0.1% (v/v). Controls with medium containing 0.1% DMSO without test compounds were also included in each plate. Compound treated cells were incubated for 24 h at 37° C. Treatment was repeated after 24 h with newly dissolved compound and cells were further incubated at 37° C. for additional 24 h. Before LC-MS analysis of CoA levels, cells were harvested, counted, and collected in a 15 ml falcon tube and centrifuged at 200×g for 5 min at 4° C. Supernatant was removed and cell pellet was washed in 10 ml of ice-cold PBS. To further confirm that the numbers of cells in each sample were equivalent, an equal fraction of pellet was collected from each sample and subjected to protein determination analysis. After centrifugation and supernatant removal, the cell pellet was rapidly frozen in Liquid Nitrogen and stored at −80° C. until analysis.\nIntracellular CoA levels were calculated considering an intracellular volume of 1 million cells=2 μl.\nThe 1×10^6 cellular pellet was extracted with 120 μl of aqueous 20% TFA. This solution was stirred for 2 min, sonicated in ultrasonic bath for 2 min, then stirred again for 1 min, and centrifuged for 15 min at 14000 g and at 4° C.\n100 μL samples of supernatant were dried under N2 at 20° C. in the dark.\nSamples were re-dissolved in 100 μl of 10 mM NH4^+ AcO^− buffer pH 5.1+IS (Dextrorphan 50 ng/ml), stirred for 2 min, sonicated in ultrasonic bath for 1 min, then stirred again for 1 min, and injected into LC-MS.\nLC-MS/MS was performed using an Agilent HPLC (1100 Series, USA). The LC system was interfaced with an API-4000 Q-Trap triple quadrupole mass spectrometer (AB Sciex, Toronto, Canada) equipped with a TurbolonSpray ionization source operating in positive ion mode. Analyst™ software version 1.6 (AB Sciex, Toronto, Canada) was used for data acquisition and processing. CoA was separated using a Luna C18 column (2.0×50 mm; 5 μm particle size), column at 25° C. and flow rate of 0.2 ml/min. Injection volume was 15 μl. The mobile phases consisted of water containing 10 mM ammonium acetate pH 7 (mobile phase A) and MeCN-2-propanol 9:1 (mobile phase B). Elution was performed using a gradient starting at 2% B, holding at 2% B until 0.1 min, increasing to 98% B at 3.2 min, holding at 98% B until 4.5 min, returning to 2% B at 4.6 min and holding at 2% B until 7.5 min. Precursor ions and MRM transitions used were: CoA m/z 768.1→261.6 and 768.1→136.1. […]"}
{"smiles": "COC(=O)CCNC(=O)[C@@H]1O[P@@](=O)(OCOC(=O)C2(C(N)=O)CC2)OCC1(C)C", "note": "[2-131, (((2S,4R)-4-((3-methoxy-3-oxopropyl)carbamoyl)-5,5-dimethy)-2-oxido-1,3,2-dioxaphosphinan-2-yl)oxy)methyl 1-carbamoylcyclopropane-1-carboxylate]", "values": [{"measurement": "PANK2−/− CoA (Fold Increase): fold increase in Coenzyme A (CoA) levels relative to controls", "result": 1.44, "unit": "Fold Increase"}]}
{"smiles": "COC(=O)CCNC(=O)[C@@H]1O[P@@](=O)(OCn2ccnc2)OCC1(C)C", "note": "[2-132, methyl 3-((2S,4R)-2-((1H-imidazol-1-yl)methoxy)-5,5-dimethyl-2-oxido-1,3,2-dioxaphosphinane-4-carboxamido)propanoate]", "values": [{"measurement": "PANK2−/− CoA (Fold Increase): fold increase in Coenzyme A (CoA) levels relative to controls", "result": 0.93, "unit": "Fold Increase"}]}
{"smiles": "CCN(CC)C(=O)[C@H](Cc1ccccc1)NC(=O)OCOP1(=O)OCC(C)(C)[C@H](C(=O)NCCC(=O)OC)O1", "note": "(stereo partly drawn) [2-135, methyl 3-((4R)-2-(((((S)-1-(diethylamino)-1-oxo-3-phenylpropan-2-yl)carbamoyl)oxy)methoxy)-5,5-dimethyl-2-oxido-1,3,2-dioxaphosphinane-4-carboxamido)propanoate]", "values": [{"measurement": "PANK2−/− CoA (Fold Increase): fold increase in Coenzyme A (CoA) levels relative to controls", "result": 1.7, "unit": "Fold Increase"}]}
{"smiles": "COC(=O)CCNC(=O)[C@@H]1OP(=O)(OCOC(=O)NCCSC(C)=O)OCC1(C)C", "note": "(stereo partly drawn) [2-136, methyl 3-((4R)-2-((((2-(acetylthio)ethyl)carbamoyl)oxy)methoxy)-5,5-dimethyl-2-oxido-1,3,2-dioxaphosphinane-4-carboxamido)propanoate]", "values": [{"measurement": "PANK2−/− CoA (Fold Increase): fold increase in Coenzyme A (CoA) levels relative to controls", "result": 1.41, "unit": "Fold Increase"}]}
{"smiles": "CCOC(=O)[C@H](Cc1ccccc1)NC(=O)OCOP1(=O)OCC(C)(C)[C@H](C(=O)NCCC(=O)OC)O1", "note": "(stereo partly drawn) [2-137, ethyl (((((4R)-4-((3-methoxy-3-oxopropyl)carbamoyl)-5,5-dimethyl-2-oxido-1,3,2-dioxaphosphinan-2-yl)oxy)methoxy)carbonyl)-L-phenylalaninate]", "values": [{"measurement": "PANK2−/− CoA (Fold Increase): fold increase in Coenzyme A (CoA) levels relative to controls", "result": 1.1, "unit": "Fold Increase"}]}
{"smiles": "COC(=O)CCNC(=O)[C@@H]1OP(=O)(OCOC(=O)c2ccnn2C)OCC1(C)C", "note": "(stereo partly drawn) [2-142, (((4R)-4-((3-methoxy-3-oxopropyl)carbamoyl)-5,5-dimethyl-2-oxido-1,3,2-dioxaphosphinan-2-yl)oxy)methyl 1-methyl-1H-pyrazole-5-carboxylate]", "values": [{"measurement": "PANK2−/− CoA (Fold Increase): fold increase in Coenzyme A (CoA) levels relative to controls", "result": 58.1, "unit": "Fold Increase"}]}
{"smiles": "COC(=O)CCNC(=O)[C@@H]1OP(=O)(OCOC(=O)c2cc(C(C)(C)C)nn2C)OCC1(C)C", "note": "(stereo partly drawn) [2-144, (((4R)-4-((3-methoxy-3-oxopropyl)carbamoyl)-5,5-dimethyl-2-oxido-1,3,2-dioxaphosphinan-2-yl)oxy)methyl 3-(tert-butyl)-1-methyl-1H-pyrazole-5-carboxylate]", "values": [{"measurement": "PANK2−/− CoA (Fold Increase): fold increase in Coenzyme A (CoA) levels relative to controls", "result": 77.8, "unit": "Fold Increase"}]}
{"smiles": "COC(=O)CCNC(=O)[C@@H]1OP(=O)(OCOC(=O)c2cc(C)nn2C)OCC1(C)C", "note": "(stereo partly drawn) [2-145, (((4R)-4-((3-methoxy-3-oxopropyl)carbamoyl)-5,5-dimethyl-2-oxido-1,3,2-dioxaphosphinan-2-yl)oxy)methyl 1,3-dimethyl-1H-pyrazole-5-carboxylate]", "values": [{"measurement": "PANK2−/− CoA (Fold Increase): fold increase in Coenzyme A (CoA) levels relative to controls", "result": 42.44, "unit": "Fold Increase"}]}
{"smiles": "COC(=O)CCNC(=O)[C@@H]1OP(=O)(OCOC(=O)c2cc(C(C)(C)C)n[nH]2)OCC1(C)C", "note": "(stereo partly drawn) [2-146, (((4R)-4-((3-methoxy-3-oxopropyl)carbamoyl)-5,5-dimethyl-2-oxido-1,3,2-dioxaphosphinan-2-yl)oxy)methyl 3-(tert-butyl)-1H-pyrazole-5-carboxylate]", "values": [{"measurement": "PANK2−/− CoA (Fold Increase): fold increase in Coenzyme A (CoA) levels relative to controls", "result": 84.86, "unit": "Fold Increase"}]}
{"smiles": "COC(=O)CCNC(=O)[C@@H]1OP(=O)(OCOC(=O)c2ocnc2C)OCC1(C)C", "note": "(stereo partly drawn) [2-147, (((4R)-4-((3-methoxy-3-oxopropyl)carbamoyl)-5,5-dimethyl-2-oxido-1,3,2-dioxaphosphinan-2-yl)oxy)methyl 4-methyloxazole-5-carboxylate]", "values": [{"measurement": "PANK2−/− CoA (Fold Increase): fold increase in Coenzyme A (CoA) levels relative to controls", "result": 39.19, "unit": "Fold Increase"}]}
{"smiles": "COC(=O)CCNC(=O)[C@@H]1OP(=O)(OCOC(=O)N[C@@H](CSC(=O)C(C)(C)C)C(=O)OC)OCC1(C)C", "note": "(stereo partly drawn) [2-148, methyl N-(((((4R)-4-((3-methoxy-3-oxopropyl)carbamoyl)-5,5-dimethyl-2-oxido-1,3,2-dioxaphosphinan-2-yl)oxy)methoxy)carbonyl)-S-pivaloyl-L-cysteinate]", "values": [{"measurement": "PANK2−/− CoA (Fold Increase): fold increase in Coenzyme A (CoA) levels relative to controls", "result": 4.19, "unit": "Fold Increase"}]}
{"smiles": "COC(=O)CCNC(=O)[C@@H]1OP(=O)(OCOC(=O)NC(C)(C)COC(C)=O)OCC1(C)C", "note": "(stereo partly drawn) [2-152, methyl 3-((4R)-2-((((l-acetoxy-2-methylpropan-2-yl)carbamoyl)oxy)methoxy)-5,5-dimethyl-2-oxido-1,3,2-dioxaphosphinane-4-carboxamido)propanoate]", "values": [{"measurement": "PANK2−/− CoA (Fold Increase): fold increase in Coenzyme A (CoA) levels relative to controls", "result": 1.24, "unit": "Fold Increase"}]}
{"smiles": "COC(=O)CCNC(=O)[C@@H]1O[P@@](=O)(OCOC(=O)NC(C)(C)COC(=O)[C@@H](N)C(C)C)OCC1(C)C", "note": "[2-158, 2-((((((2S,4R)-4-((3-methoxy-3-oxopropyl)carbamoyl)-5,5-dimethyl-2-oxido-1,3,2-dioxaphosphinan-2-yl)oxy)methoxy)carbonyl)amino)-2-methylpropyl L-valinate]", "values": [{"measurement": "PANK2−/− CoA (Fold Increase): fold increase in Coenzyme A (CoA) levels relative to controls", "result": 2.72, "unit": "Fold Increase"}]}
{"smiles": "COC(=O)CCNC(=O)[C@@H]1O[P@](=O)(Oc2ccc(C[C@H](N)C(=O)OC)cc2)OCC1(C)C", "note": "[2-163, Methyl (S)-2-amino-3-(4-(((2R,4R)-4-((3-methoxy-3-oxopropyl)carbamoyl)-5,5-dimethyl-2-oxido-1,3,2-dioxaphosphinan-2-yl)oxy)phenyl)propanoate]", "values": [{"measurement": "PANK2−/− CoA (Fold Increase): fold increase in Coenzyme A (CoA) levels relative to controls", "result": 81.21, "unit": "Fold Increase"}]}
{"smiles": "COC(=O)CCNC(=O)[C@@H]1O[P@@](=O)(OCOC(=O)N[C@@H](CSC(=O)C(C)(C)C)C(=O)OCc2ccccc2)OCC1(C)C", "note": "[2-164, Benzyl N-(((((2S,4R)-4-((3-methoxy-3-oxopropyl)carbamoyl)-5,5-dimethyl-2-oxido-1,3,2-dioxaphosphinan-2-yl)oxy)methoxy)carbonyl)-S-pivaloyl-L-cysteinate]", "values": [{"measurement": "PANK2−/− CoA (Fold Increase): fold increase in Coenzyme A (CoA) levels relative to controls", "result": 101.86, "unit": "Fold Increase"}]}
{"smiles": "COC(=O)CCNC(=O)[C@@H]1O[P@](=O)(Oc2ccc(C#N)cc2)OCC1(C)C", "note": "[2-165, methyl 3-((2R,4R)-2-(4-cyanophenoxy)-5,5-dimethyl-2-oxido-1,3,2-dioxaphosphinane-4-carboxamido)propanoate]", "values": [{"measurement": "PANK2−/− CoA (Fold Increase): fold increase in Coenzyme A (CoA) levels relative to controls", "result": 6.87, "unit": "Fold Increase"}]}
{"smiles": "COC(=O)CCNC(=O)[C@@H]1O[P@](=O)(Oc2ccccc2C(=O)OC)OCC1(C)C", "note": "[2-166]", "values": [{"measurement": "PANK2−/− CoA (Fold Increase): fold increase in Coenzyme A (CoA) levels relative to controls", "result": 3.61, "unit": "Fold Increase"}]}
{"smiles": "COC(=O)CCNC(=O)[C@@H]1OP(=O)(OCOC(=O)NC(C)(C)COC(=O)C(C)(C)C)OCC1(C)C", "note": "(stereo partly drawn) [2-167, 2-((((((4R)-4-((3-methoxy-3-oxopropyl)carbamoyl)-5,5-dimethyl-2-oxido-1,3,2-dioxaphosphinan-2-yl)oxy)methoxy)carbonyl)amino)-2-methylpropyl pivalate]", "values": [{"measurement": "PANK2−/− CoA (Fold Increase): fold increase in Coenzyme A (CoA) levels relative to controls", "result": 3.26, "unit": "Fold Increase"}]}
{"smiles": "COC(=O)CCNC(=O)[C@@H]1OP(=O)(OCOC(=O)NCCOC(C)=O)OCC1(C)C", "note": "(stereo partly drawn) [2-168, methyl 3-((4R)-2-((((2-acetoxyethyl)carbamoyl)oxy)methoxy)-5,5-dimethyl-2-oxido-1,3,2-dioxaphosphinane-4-carboxamido)propanoate]", "values": [{"measurement": "PANK2−/− CoA (Fold Increase): fold increase in Coenzyme A (CoA) levels relative to controls", "result": 2.69, "unit": "Fold Increase"}]}
